This is an account of results in PMC12202571, “Reversal of ABCG2-mediated drug resistance by tinodasertib (ETC-206)” (Frontiers in Pharmacology, 2025).

A word on the IC50: it is the concentration needed to halve the response being measured. The low end stands for inhibition by little substance, the high end for a need for much substance.

The target of series [1] is T1, ABCG2 (Homo sapiens, UniProt Q9UNQ0).
T1 sequence (Q9UNQ0 1-655): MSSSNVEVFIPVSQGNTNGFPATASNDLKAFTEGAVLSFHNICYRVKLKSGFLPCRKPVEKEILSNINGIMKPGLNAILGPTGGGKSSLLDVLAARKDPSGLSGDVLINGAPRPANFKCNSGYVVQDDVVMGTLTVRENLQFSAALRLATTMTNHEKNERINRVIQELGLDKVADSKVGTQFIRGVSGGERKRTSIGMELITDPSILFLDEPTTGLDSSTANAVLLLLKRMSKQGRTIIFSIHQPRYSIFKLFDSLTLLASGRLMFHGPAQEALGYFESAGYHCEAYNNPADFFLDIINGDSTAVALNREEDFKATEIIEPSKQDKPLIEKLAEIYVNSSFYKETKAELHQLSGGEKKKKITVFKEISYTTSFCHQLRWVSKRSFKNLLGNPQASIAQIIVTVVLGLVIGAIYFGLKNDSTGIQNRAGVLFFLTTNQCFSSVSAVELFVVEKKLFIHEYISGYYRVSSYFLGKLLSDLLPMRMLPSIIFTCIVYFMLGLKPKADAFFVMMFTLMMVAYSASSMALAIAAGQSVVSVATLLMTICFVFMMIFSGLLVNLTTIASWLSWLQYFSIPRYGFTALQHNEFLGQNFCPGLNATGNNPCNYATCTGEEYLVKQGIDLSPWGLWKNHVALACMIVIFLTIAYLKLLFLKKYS

For series [2], the target named is T2, ABCG2 (Homo sapiens, UniProt Q9UNQ0).
T2 construct: ABCG2-containing membrane vesicles
In words: vanadate-sensitive ATPase assay in ABCG2 membrane vesicles (colorimetric phosphate); supported by [3H]-mitoxantrone efflux inhibition in cells. In kind it is biochemical.

Molecules are shown by their SMILES.

On to `O=C1c2c(O)ccc(O)c2C(=O)c2c(NCCNCCO)ccc(NCCNCCO)c21` [mitoxantrone], for which the “[3H]-mitoxantrone accumulation and efflux in ABCG2-overexpressing versus parenta” value in series [1] was “Efflux assays demonstrated a substantial reduction in [^3H]-mitoxantrone efflux from ABCG2-overexpressing cells”.
As for `N#Cc1ccc(-c2cnc3ccc(-c4ccc(C(=O)N5CCOCC5)cc4)cn23)cc1` [tinodasertib], the half-inhibitory concentration (IC50) in series [2] was about 2000 nM.
